Data on nine molecules can be found in PubChem BioAssay AID1259407 (Chemical Carcinogenesis Research Information System (CCRIS), 2018).

Active and inactive are the calls of the source. How the calls were made is not given here.

In this series the test system is CCRIS mutagenicity, Ames/micronucleus/aberration tests. The series is described as follows: CCRIS mutagenicity studies.
Where [1] appears, read: Test System: AMES SALMONELLA TYPHIMURIUM, Strain/Indicator: TA100, Metabolic Activation: NONE, Method: PREINCUBATION
[2] abbreviates: Test System: AMES SALMONELLA TYPHIMURIUM, Strain/Indicator: TA98, Metabolic Activation: NONE, Method: STANDARD PLATE.
The mark [3] stands for this setting: Test System: AMES SALMONELLA TYPHIMURIUM, Strain/Indicator: TA98, Metabolic Activation: RAT, LIVER, S-9, AROCLOR 1254, Method: STANDARD PLATE.
Setting [4] is: Test System: AMES SALMONELLA TYPHIMURIUM, Strain/Indicator: TA100, Metabolic Activation: NONE, Method: STANDARD PLATE.
Setting [5] is: Test System: AMES SALMONELLA TYPHIMURIUM, Strain/Indicator: TA100, Metabolic Activation: RAT, LIVER, S-9, AROCLOR 1254, Method: STANDARD PLATE.
Where [6] appears, read: Test System: AMES SALMONELLA TYPHIMURIUM, Strain/Indicator: TA102, Metabolic Activation: NONE, Method: STANDARD PLATE.
Setting [7] is: Test System: AMES SALMONELLA TYPHIMURIUM, Strain/Indicator: TA1535, Metabolic Activation: NONE, Method: STANDARD PLATE.
The mark [8] stands for this setting: Test System: AMES SALMONELLA TYPHIMURIUM, Strain/Indicator: TA1535, Metabolic Activation: RAT, LIVER, S-9, AROCLOR 1254, Method: STANDARD PLATE.

As for `Nc1ccc2ccc3c4ccccc4cc4ccc1c2c43`, the mutagenic call (Test System: AMES SALMONELLA TYPHIMURIUM, Strain/Indicator: TA98, Metabolic Activation: NONE) was “active; positive” and the mutagenic call (Test System: AMES SALMONELLA TYPHIMURIUM, Strain/Indicator: TA98, Metabolic Activation: RAT, LIVER, S-9, AROCLOR 1254) is “active; positive”.
Take `CCOC(=O)c1ccccc1N`: the mutagenic call was “inactive; negative” (Test System: AMES SALMONELLA TYPHIMURIUM, Strain/Indicator: TA98, Metabolic Activation: HAMSTER, LIVER, S-9, AROCLOR 1254 (10%), Method: PREINCUBATION); “inactive; negative” (Test System: AMES SALMONELLA TYPHIMURIUM, Strain/Indicator: TA98, Metabolic Activation: NONE, Method: PREINCUBATION); “inactive; negative” (Test System: AMES SALMONELLA TYPHIMURIUM, Strain/Indicator: TA98, Metabolic Activation: RAT, LIVER, S-9, AROCLOR 1254 (10%), Method: PREINCUBATION); “inactive; negative” (Test System: AMES SALMONELLA TYPHIMURIUM, Strain/Indicator: TA100, Metabolic Activation: HAMSTER, LIVER, S-9, AROCLOR 1254 (10%), Method: PREINCUBATION); “inactive; negative” under setting [1]; “inactive; negative” (Test System: AMES SALMONELLA TYPHIMURIUM, Strain/Indicator: TA100, Metabolic Activation: RAT, LIVER, S-9, AROCLOR 1254 (10%), Method: PREINCUBATION). The mutagenic call runs as follows: (Test System: AMES SALMONELLA TYPHIMURIUM, Strain/Indicator: TA1535, Metabolic Activation: HAMSTER, LIVER, S-9, AROCLOR 1254 (10%), Method: PREINCUBATION) “inactive; negative”; (Test System: AMES SALMONELLA TYPHIMURIUM, Strain/Indicator: TA1535, Metabolic Activation: NONE, Method: PREINCUBATION) “inactive; negative”; (Test System: AMES SALMONELLA TYPHIMURIUM, Strain/Indicator: TA1535, Metabolic Activation: RAT, LIVER, S-9, AROCLOR 1254 (10%), Method: PREINCUBATION) “inactive; negative”; (Test System: AMES SALMONELLA TYPHIMURIUM, Strain/Indicator: TA1537, Metabolic Activation: HAMSTER, LIVER, S-9, AROCLOR 1254 (10%), Method: PREINCUBATION) “inactive; negative”; (Test System: AMES SALMONELLA TYPHIMURIUM, Strain/Indicator: TA1537, Metabolic Activation: NONE, Method: PREINCUBATION) “inactive; negative”; (Test System: AMES SALMONELLA TYPHIMURIUM, Strain/Indicator: TA1537, Metabolic Activation: RAT, LIVER, S-9, AROCLOR 1254 (10%), Method: PREINCUBATION) “inactive; negative”.
Consider `O=C(/C=C/c1ccc([N+](=O)[O-])cc1)c1ccccc1`, for which the mutagenic call by setting is: (Test System: AMES SALMONELLA TYPHIMURIUM, Strain/Indicator: TA98, Metabolic Activation: HAMSTER, LIVER, S-9, AROCLOR 1254, Method: STANDARD PLATE) “active; positive”; under setting [2], “inactive; negative”; under setting [3], “active; positive”; (Test System: AMES SALMONELLA TYPHIMURIUM, Strain/Indicator: TA100(1,8-DNP6), Metabolic Activation: NONE, Method: PREINCUBATION) “inactive; negative”; (Test System: AMES SALMONELLA TYPHIMURIUM, Strain/Indicator: TA100(1,8-DNP6), Metabolic Activation: RAT, LIVER, S-9, AROCLOR 1254, Method: PREINCUBATION) “inactive; negative”; (Test System: AMES SALMONELLA TYPHIMURIUM, Strain/Indicator: TA100(NR), Metabolic Activation: NONE, Method: PREINCUBATION) “inactive; negative”. Further, the mutagenic call (Test System: AMES SALMONELLA TYPHIMURIUM, Strain/Indicator: TA100(NR), Metabolic Activation: RAT, LIVER, S-9, AROCLOR 1254, Method: PREINCUBATION) was “inactive; negative”; the mutagenic call (Test System: AMES SALMONELLA TYPHIMURIUM, Strain/Indicator: TA100, Metabolic Activation: HAMSTER, LIVER, S-9, AROCLOR 1254, Method: STANDARD PLATE) is “active; positive”; the mutagenic call under setting [1] was “inactive; negative”; the mutagenic call under setting [4] was “inactive; negative”; the mutagenic call under setting [5] was “active; positive”; the mutagenic call (Test System: AMES SALMONELLA TYPHIMURIUM, Strain/Indicator: TA100, Metabolic Activation: RAT, LIVER, S-9, AROCLOR, Method: PREINCUBATION) was “active; positive”. For the same molecule, the mutagenic call (Test System: MOUSE LYMPHOMA, Strain/Indicator: L5178Y (TK+/TK-), Metabolic Activation: NONE, Method: SUSPENSION/PLATE) is “inactive; negative. reevaluation of results: negative” and the mutagenic call (Test System: MOUSE LYMPHOMA, Strain/Indicator: L5178Y (TK+/TK-), Metabolic Activation: RAT, LIVER, S-9, AROCLOR 1254, Method: SUSPENSION/PLATE) is “inactive; negative. reevaluation of results: negative”.
`COc1cccc2c1C(=O)c1c(O)c3c(c(O)c1C2=O)C[C@@](O)(C(C)=O)C[C@@H]3O[C@@H]1C[C@@H](N(C)C)[C@@H](O)[C@@H](C)O1`: the mutagenic call under setting [6] was “active; positive”.
On to `CN1CCN=N1`, for which the mutagenic call under setting [7] was “active; positive”.
On to `CCC/C=C/C(=O)O[C@@H]1C(C)(C)C[C@@H]2C34CC3(C(C=O)=C[C@]12O)[C@@H](O)OC4=O` (stereo partly drawn), for which the mutagenic call was “active; positive” (Test System: AMES SALMONELLA TYPHIMURIUM, Strain/Indicator: TA98, Metabolic Activation: NONE, Method: SPOT TEST); “active; positive” under setting [2]; “inactive; negative” (Test System: AMES SALMONELLA TYPHIMURIUM, Strain/Indicator: TA100, Metabolic Activation: NONE, Method: SPOT TEST); “active; positive” under setting [4]; “inactive; negative” (Test System: AMES SALMONELLA TYPHIMURIUM, Strain/Indicator: TA1535, Metabolic Activation: NONE, Method: SPOT TEST); “inactive; negative” (Test System: AMES SALMONELLA TYPHIMURIUM, Strain/Indicator: TA1538, Metabolic Activation: NONE, Method: SPOT TEST). Moreover, the mutagenic call (Test System: AMES SALMONELLA TYPHIMURIUM, Strain/Indicator: TA2637, Metabolic Activation: NONE, Method: STANDARD PLATE) is “active; positive”.
On to `CN1CCC=C2c3nc(N)sc3CCC21` (stereo not drawn), for which the mutagenic call runs as follows: under setting [2], “inactive; negative”; under setting [3], “active; positive”; under setting [4], “inactive; negative”; under setting [5], “active; positive”; under setting [7], “inactive; negative”; under setting [8], “inactive; negative”. Besides, the mutagenic call reads like this: (Test System: AMES SALMONELLA TYPHIMURIUM, Strain/Indicator: TA1537, Metabolic Activation: NONE, Method: STANDARD PLATE) “inactive; negative”; (Test System: AMES SALMONELLA TYPHIMURIUM, Strain/Indicator: TA1537, Metabolic Activation: RAT, LIVER, S-9, AROCLOR 1254, Method: STANDARD PLATE) “inactive; negative”; (Test System: AMES SALMONELLA TYPHIMURIUM, Strain/Indicator: TA1538, Metabolic Activation: NONE, Method: STANDARD PLATE) “inactive; negative”.
`Cn1c(N)nc2cc3ccccc3cc21`: the mutagenic call (Test System: AMES SALMONELLA TYPHIMURIUM, Strain/Indicator: TA98, Metabolic Activation: RAT, LIVER, S-9, AROCLOR 1254A, Method: STANDARD PLATE) is “active; positive” and the mutagenic call (Test System: AMES SALMONELLA TYPHIMURIUM, Strain/Indicator: YG1024, Metabolic Activation: RAT, LIVER, S-9, AROCLOR 1254A, Method: STANDARD PLATE) is “active; positive”.
Regarding `C[C@]12CC[C@H](OC(=O)Cc3ccc(N(CCCl)CCCl)cc3)C[C@@H]1CC[C@@H]1[C@@H]2CC[C@]2(C)NC(=O)CC[C@@H]12`, the mutagenic call runs as follows: under setting [2], “inactive; negative”; under setting [3], “inactive; negative”; under setting [4], “active; positive”; under setting [5], “active; positive”; under setting [6], “active; positive”; (Test System: AMES SALMONELLA TYPHIMURIUM, Strain/Indicator: TA102, Metabolic Activation: RAT, LIVER, S-9, AROCLOR 1254, Method: STANDARD PLATE) “active; positive”. Besides, the mutagenic call is “inactive; negative” (Test System: AMES SALMONELLA TYPHIMURIUM, Strain/Indicator: TA104, Metabolic Activation: NONE, Method: STANDARD PLATE); “inactive; negative” (Test System: AMES SALMONELLA TYPHIMURIUM, Strain/Indicator: TA104, Metabolic Activation: RAT, LIVER, S-9, AROCLOR 1254, Method: STANDARD PLATE); “active; positive” under setting [7]; “active; positive” under setting [8].
